# Results as given in ChEMBL document CHEMBL3885861, “Open TG-GATES”.
# Organism: Rattus norvegicus
# Experiment: Open TG-GATES - Regimen: Daily Repeat
# Format: toxicity, organism-based, Sprague-Dawley
# Parameters: regimen Daily Repeat, gender Male, age 6 weeks
# Conditions: in vivo, po, route gavage; for Eos / Fbg / Ht / Lym / MCHC / MCV / Mono / Neu / RBC / Ret / WBC / APTT / Bas / PT / Hb: tissue Blood; for KIDNEY_L / KIDNEY_R / KIDNEY_TOTAL: tissue Kidney; for ALP / ALT / AST / BUN / CRE / Ca / Cl / DBIL / GLC / IP / K / PL / RALB / TBIL / TC / TG / TP / gamma-GTP: tissue Plasma
# [1] = 60 mg/kg, 72 h, dose level Middle, time 3 day
# [2] = 60 mg/kg, […], dose level Middle, time 7 day
# [3] = 60 mg/kg, […], dose level Middle, time 14 day
# [4] = 60 mg/kg, […], dose level Middle, time 28 day
# [5] = 200 mg/kg, 72 h, dose level High, time 3 day
# [6] = 200 mg/kg, […], dose level High, time 7 day
# [7] = 200 mg/kg, […], dose level High, time 14 day
# [8] = 200 mg/kg, […], dose level High, time 28 day
structure (smiles),measurement,setting,value
CCCCC1C(=O)N(c2ccccc2)N(c2ccccc2)C1=O [PHENYLBUTAZONE],Eos,[1],1.2%
same,Fbg,[1],234.2 mg/dL
same,Ht,[1],42.3%
same,Lym,[1],76.2%
same,MCHC,[1],33.5%
same,MCV,[1],63.4 fL
same,Mono,[1],6.4%
same,Neu,[1],16.4%
same,RBC,[1],667.4 x10_4/ul
same,Ret,[1],6.7%
same,WBC,[1],119.1 x10_2/uL
same,KIDNEY_L,[1],1 g
same,KIDNEY_R,[1],1 g
same,KIDNEY_TOTAL,[1],2 g
same,ALP,[1],957.4 IU/L
same,ALT,[1],35.6 IU/L
same,AST,[1],57.6 IU/L
same,BUN,[1],18.4 mg/dL
same,CRE,[1],0.6 mg/dL
same,Ca,[1],10.5 mg/dL
same,Cl,[1],105.6 meq/L
same,DBIL,[1],0.006 mg/dL
same,GLC,[1],199.4 mg/dL
same,IP,[1],7.9 mg/dL
same,K,[1],4.7 meq/L
same,PL,[1],167.6 mg/dL
same,RALB,[1],4 g/dL
same,TBIL,[1],0.3 mg/dL
same,TC,[1],92 mg/dL
same,TG,[1],136.8 mg/dL
same,TP,[1],6.1 g/dL
same,gamma-GTP,[1],1 IU/L
same,TERMINAL_BW,[2],272.5 g
same,TERMINAL_BW,[3],313.9 g
same,TERMINAL_BW,[4],407.1 g
same,APTT,[2],16.2 s
same,Bas,[2],0%
same,Eos,[2],0.4%
same,Fbg,[2],231 mg/dL
same,Ht,[2],42.2%
same,Lym,[2],86.2%
same,MCHC,[2],33.6%
same,MCV,[2],64.2 fL
same,Mono,[2],4.2%
same,Neu,[2],9%
same,PT,[2],11.7 s
same,RBC,[2],657.4 x10_4/ul
same,Ret,[2],5.4%
same,WBC,[2],186.6 x10_2/uL
same,APTT,[3],16.5 s
same,Bas,[3],0%
same,Eos,[3],0.6%
same,Fbg,[3],227.6 mg/dL
same,Hb,[3],14.9 g/dL
same,Ht,[3],44.5%
same,Lym,[3],86%
same,MCHC,[3],33.5%
same,MCV,[3],60.4 fL
same,Mono,[3],4%
same,Neu,[3],9.4%
same,RBC,[3],736.4 x10_4/ul
same,Ret,[3],4.4%
same,WBC,[3],167.1 x10_2/uL
same,APTT,[4],15.9 s
same,Bas,[4],0%
same,Eos,[4],0.6%
same,Fbg,[4],246.5 mg/dL
same,Hb,[4],15.3 g/dL
same,Ht,[4],45.9%
same,Lym,[4],86%
same,MCHC,[4],33.4%
same,MCV,[4],58.4 fL
same,Mono,[4],3%
same,RBC,[4],786.6 x10_4/ul
same,Ret,[4],2.6%
same,WBC,[4],129.4 x10_2/uL
same,KIDNEY_L,[2],1.1 g
same,KIDNEY_R,[2],1.1 g
same,KIDNEY_TOTAL,[2],2.2 g
same,KIDNEY_L,[3],1.3 g
same,KIDNEY_R,[3],1.3 g
same,KIDNEY_TOTAL,[3],2.6 g
same,KIDNEY_L,[4],1.4 g
same,KIDNEY_R,[4],1.4 g
same,KIDNEY_TOTAL,[4],2.9 g
same,ALP,[2],845.8 IU/L
same,ALT,[2],37.4 IU/L
same,AST,[2],65 IU/L
same,BUN,[2],20.8 mg/dL
same,CRE,[2],0.5 mg/dL
same,Ca,[2],10.7 mg/dL
same,Cl,[2],106.6 meq/L
same,DBIL,[2],0 mg/dL
same,GLC,[2],195.8 mg/dL
same,IP,[2],8.5 mg/dL
same,K,[2],5 meq/L
same,PL,[2],161 mg/dL
same,RALB,[2],4 g/dL
same,TBIL,[2],0.3 mg/dL
same,TC,[2],79 mg/dL
same,TG,[2],166.8 mg/dL
same,TP,[2],6.7 g/dL
same,gamma-GTP,[2],1.4 IU/L
same,ALP,[3],877.8 IU/L
same,ALT,[3],36.4 IU/L
same,AST,[3],65 IU/L
same,BUN,[3],20.8 mg/dL
same,CRE,[3],0.6 mg/dL
same,Ca,[3],10.6 mg/dL
same,Cl,[3],107 meq/L
same,DBIL,[3],0.002 mg/dL
same,GLC,[3],189.4 mg/dL
same,IP,[3],8.3 mg/dL
same,K,[3],4.5 meq/L
same,RALB,[3],4 g/dL
same,TBIL,[3],0.3 mg/dL
same,TC,[3],64 mg/dL
same,TG,[3],138 mg/dL
same,TP,[3],6.3 g/dL
same,gamma-GTP,[3],1.8 IU/L
same,ALP,[4],605.8 IU/L
same,ALT,[4],44.2 IU/L
same,AST,[4],70.8 IU/L
same,BUN,[4],22.2 mg/dL
same,CRE,[4],0.6 mg/dL
same,Ca,[4],10.7 mg/dL
same,Cl,[4],105.2 meq/L
same,DBIL,[4],0.006 mg/dL
same,GLC,[4],189.8 mg/dL
same,IP,[4],7.7 mg/dL
same,K,[4],4.6 meq/L
same,PL,[4],161.8 mg/dL
same,RALB,[4],4.3 g/dL
same,TBIL,[4],0.4 mg/dL
same,TC,[4],76.4 mg/dL
same,TG,[4],280.8 mg/dL
same,TP,[4],6.8 g/dL
same,gamma-GTP,[4],1.2 IU/L
same,TERMINAL_BW,[5],224.8 g
same,APTT,[5],17.7 s
same,Bas,[5],0%
same,Eos,[5],1%
same,Fbg,[5],309.8 mg/dL
same,Hb,[5],12.5 g/dL
same,Ht,[5],37.3%
same,Lym,[5],74.4%
same,MCHC,[5],33.5%
same,MCV,[5],63.9 fL
same,Mono,[5],9.4%
same,Neu,[5],15.8%
same,PT,[5],11.7 s
same,RBC,[5],586.8 x10_4/ul
same,Ret,[5],8.1%
same,WBC,[5],200.4 x10_2/uL
same,KIDNEY_L,[5],1.1 g
same,KIDNEY_R,[5],1.1 g
same,KIDNEY_TOTAL,[5],2.2 g
same,ALP,[5],627.8 IU/L
same,ALT,[5],27 IU/L
same,AST,[5],55.2 IU/L
same,BUN,[5],20.4 mg/dL
same,CRE,[5],0.6 mg/dL
same,Ca,[5],10.2 mg/dL
same,Cl,[5],106 meq/L
same,DBIL,[5],0 mg/dL
same,GLC,[5],189.2 mg/dL
same,IP,[5],7 mg/dL
same,K,[5],5.1 meq/L
same,RALB,[5],3.3 g/dL
same,TBIL,[5],0.2 mg/dL
same,TC,[5],81.8 mg/dL
same,TG,[5],168.6 mg/dL
same,TP,[5],5.8 g/dL
same,gamma-GTP,[5],2.2 IU/L
same,TERMINAL_BW,[6],254.1 g
same,TERMINAL_BW,[7],296 g
same,TERMINAL_BW,[8],348.8 g
same,APTT,[6],17.1 s
same,Bas,[6],0%
same,Eos,[6],1%
same,Fbg,[6],250 mg/dL
same,Hb,[6],13.4 g/dL
same,Ht,[6],40.3%
same,Lym,[6],77%
same,MCHC,[6],33.4%
same,MCV,[6],63.9 fL
same,Mono,[6],4.6%
same,Neu,[6],17.6%
same,PT,[6],11.7 s
same,RBC,[6],631.8 x10_4/ul
same,Ret,[6],7.4%
same,WBC,[6],199.8 x10_2/uL
same,APTT,[7],17.5 s
same,Bas,[7],0%
same,Eos,[7],0.4%
same,Fbg,[7],257.2 mg/dL
same,Hb,[7],13.8 g/dL
same,Ht,[7],41.2%
same,Lym,[7],78.8%
same,MCHC,[7],33.4%
same,MCV,[7],59.6 fL
same,Mono,[7],4.4%
same,Neu,[7],16.2%
same,RBC,[7],692.2 x10_4/ul
same,Ret,[7],5.8%
same,WBC,[7],162.2 x10_2/uL
same,APTT,[8],15.6 s
same,Bas,[8],0%
same,Eos,[8],0.4%
same,Fbg,[8],273 mg/dL
same,Hb,[8],13.3 g/dL
same,Ht,[8],39.7%
same,Lym,[8],76%
same,MCHC,[8],33.4%
same,MCV,[8],58 fL
same,Mono,[8],3%
same,Neu,[8],20.4%
same,RBC,[8],684.8 x10_4/ul
same,Ret,[8],6.4%
same,WBC,[8],184.3 x10_2/uL
same,KIDNEY_L,[6],1.1 g
same,KIDNEY_R,[6],1.1 g
same,KIDNEY_TOTAL,[6],2.2 g
same,KIDNEY_L,[7],1.2 g
same,KIDNEY_R,[7],1.2 g
same,KIDNEY_TOTAL,[7],2.4 g
same,KIDNEY_L,[8],1.4 g
same,KIDNEY_R,[8],1.5 g
same,KIDNEY_TOTAL,[8],2.9 g
same,ALP,[6],763 IU/L
same,ALT,[6],32 IU/L
same,AST,[6],57.4 IU/L
same,BUN,[6],20.2 mg/dL
same,CRE,[6],0.6 mg/dL
same,Ca,[6],10.7 mg/dL
same,Cl,[6],105 meq/L
same,DBIL,[6],0 mg/dL
same,GLC,[6],201 mg/dL
same,IP,[6],8.4 mg/dL
same,K,[6],4.8 meq/L
same,RALB,[6],3.9 g/dL
same,TBIL,[6],0.3 mg/dL
same,TC,[6],75.4 mg/dL
same,TG,[6],113.8 mg/dL
same,TP,[6],6.6 g/dL
same,gamma-GTP,[6],2.8 IU/L
same,ALP,[7],719.2 IU/L
same,ALT,[7],30.4 IU/L
same,AST,[7],63 IU/L
same,BUN,[7],26.6 mg/dL
same,CRE,[7],0.6 mg/dL
same,Ca,[7],10.7 mg/dL
same,Cl,[7],106.2 meq/L
same,DBIL,[7],0.008 mg/dL
same,GLC,[7],184.6 mg/dL
same,IP,[7],8.4 mg/dL
same,K,[7],4.3 meq/L
same,RALB,[7],3.9 g/dL
same,TBIL,[7],0.4 mg/dL
same,TC,[7],69.6 mg/dL
same,TG,[7],147.6 mg/dL
same,TP,[7],6.4 g/dL
same,gamma-GTP,[7],1.2 IU/L
same,ALP,[8],413 IU/L
same,ALT,[8],28.2 IU/L
same,AST,[8],57.2 IU/L
same,BUN,[8],24.2 mg/dL
same,CRE,[8],0.6 mg/dL
same,Ca,[8],10.5 mg/dL
same,Cl,[8],106.8 meq/L
same,DBIL,[8],0.02 mg/dL
same,GLC,[8],174.2 mg/dL
same,IP,[8],7.4 mg/dL
same,K,[8],4.4 meq/L
same,RALB,[8],3.9 g/dL
same,TBIL,[8],0.3 mg/dL
same,TC,[8],72.2 mg/dL
same,TG,[8],166.2 mg/dL
same,TP,[8],6.1 g/dL
same,gamma-GTP,[8],1.8 IU/L
